According to patent US20260144788A1, “COMPOUND FOR SHP2 PROTEIN DEGRADATION AND MEDICAL USES THEREOF” (UBIX THERAPEUTICS, INC., priority 2022, published 2026):

What was measured:
SHP2 protein [1] = molecular target: T1, SHP2 protein (Homo sapiens, UniProt Q06124); experiment: Measurement of SHP2 protein degradation in MV-4-11 cells (western blotting); assay type: cell-based; parameters: endogenous in cells; conditions: harvested after 24 hours
T1 sequence (Q06124 1-593): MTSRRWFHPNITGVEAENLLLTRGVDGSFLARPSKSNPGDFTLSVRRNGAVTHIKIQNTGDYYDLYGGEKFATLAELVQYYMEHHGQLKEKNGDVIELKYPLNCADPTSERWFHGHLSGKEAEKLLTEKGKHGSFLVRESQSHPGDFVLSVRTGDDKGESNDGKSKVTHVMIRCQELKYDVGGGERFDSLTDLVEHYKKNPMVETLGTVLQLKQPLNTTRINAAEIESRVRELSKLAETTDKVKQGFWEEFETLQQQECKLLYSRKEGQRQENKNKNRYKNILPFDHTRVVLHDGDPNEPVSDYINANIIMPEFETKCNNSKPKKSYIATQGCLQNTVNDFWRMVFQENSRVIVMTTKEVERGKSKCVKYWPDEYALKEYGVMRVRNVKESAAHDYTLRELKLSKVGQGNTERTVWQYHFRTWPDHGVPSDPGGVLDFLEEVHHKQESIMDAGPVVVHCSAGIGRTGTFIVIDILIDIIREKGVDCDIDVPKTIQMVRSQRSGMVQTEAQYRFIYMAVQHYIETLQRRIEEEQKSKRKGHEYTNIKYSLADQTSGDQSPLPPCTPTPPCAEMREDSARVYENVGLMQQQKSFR
Description: MV-4-11 cells were treated with the synthesized Example compounds, and the amount of SHP2 protein present in the cells was measured using western blotting detection. The protocol for the experiment conducted using MV-4-11 cells is as follows.
[Culture] MV-4-11 cells were resuspended in IMDM MEDIUM (Hyclone, SH30228.01), 5% FBS (Hyclone, SV30207.02), 1% Penicillin-streptomycin (Welgene, LS 202-02) media and seeded at 1×10^6/mL in 12-well plates (1 mL each).
[Compound treatment]12-well plates were treated as follows. 10 mM stock dissolved in DMSO was serially diluted 1/100 or 1/10 with media, and the compounds were treated to the cells at a final concentration of 0.01, 0.1, 1 μM or 0.001, 0.01, 0.1 μM, and harvested after 24 hours. For the negative control group, DMSO diluted 1/100 or 1/1000 in media was added (3 μL DMSO+297 μL media or 1 μL DMSO+999 μL media).
[Harvest] Each well was pipetted with a 1 mL pipette, collected in a 1.5 mL microtube, and centrifuged (500 g, 5 min, 4° C.). The supernatant was removed, washed with PBS, and centrifuged again (500 g, 5 min, 4° C.). The supernatant was removed and a pellet was prepared.
[Cell lysis and sample preparation] Lysis buffer was prepared as follows. RIPA buffer (Biosesang, RC2038-050-00)+0.5 mM PMSF (SIGMA, P7626)+1× Protease/Phosphatase Inhibitor (Cell signaling, 5872S) were added at 50 μL per tube and incubated on ice for 30 minutes (vortexed at 0 and 30 minutes). After sonication (10 sec pulse, 30 sec rest, 5 cycles, 70% amplification) and centrifugation (15,000 g, 15 min, 4° C.), only the supernatant was transferred to a microtube. RIPA buffer 7.5 μL and sample 2.5 μL were added to a 96-well plate to dilute to 1/4, and then BCA Protein Assay Kit (iNtRON, 21071) A and B were mixed in a 50:1 ratio and 200 μL each was added. After that, the plate was incubated at 37° C. for 30 minutes and left at room temperature for 10 minutes. After shaking for 10 seconds with a SYNERGY H1 microplate reader from BioTek, the absorbance was measured at 562 nm. The protein was quantified using the measured value to prepare a sample, which was then incubated at 70° C. for 10 minutes. The sample buffer used at this time is a mixture of NuPAGE or Bolt 4× sample buffer (Invitrogen) and each 10× sample reducing agent according to the gel to be used, and RIPA buffer was used for protein dilution.
[Western blotting detection] Equal amounts of samples were loaded onto NuPAGE or Bolt Bis-tris 4-12% gradient gels and run (200 V, 35 min). This was transferred to […] NC membranes using Trans-blot Turbo (BIO-RAD) (1.3 A constant, 25 V limit, 15 min), and was blocked at room temperature for 1 hour with Skim milk or Intercept Blocking Buffer (LI-COR, 927-60001):0.1% TBST=1:1. Anti-SHPTP2 Mouse (1:500 in 2% BSA/0.2% TBST, size: 70 kDa, Santacruz sc-7384) was incubated overnight at 4° C., and Anti-GAPDH Rabbit (1:2,000 in 2% BSA/0.2% TBST, size: 37 kDa, CST #2118) was incubated at room temperature for 1.5 hours or 3 hours. After washing three times for 5 minutes each with 0.2% TBST washing buffer, secondary antibodies Anti-Mouse IgG (1:5,000 in 2% BSA/0.2% TBST, CST) and IRDye® 680RD Goat anti-Rabbit IgG Secondary Antibody (1:10,000 in 2% BSA/0.2% TBST, LI-COR 926-68071) were added, and incubated on a rocker at room temperature for 45 minutes. The resultants were washed five times for 5 minutes each with 0.2% TBST washing buffer, and detected using LI-COR's Odyssey. GAPDH was detected with a 700 nm channel, and SHPTP2 was detected using SuperSignal West Pico PLUS Chemiluminescent Substrate.

SHP2 protein [2] = molecular target: T1, SHP2 protein; experiment: Measurement of SHP2 protein degradation in NCI-H358 cells (western blotting); assay type: cell-based; parameters: endogenous in cells; host or cells: NCI-H358; conditions: harvested after 24 hours
Method in brief: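 H358 cells in RPMI1640/25 mM HEPES/10% FBS, cultured 24 h, then exposed to compound at final 0.001, 0.01 and 0.1 μM for 24 h against a DMSO control. Lysates were normalised for protein by BCA and probed by western blot for SHP2, with GAPDH as loading control.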

Cc1ncsc1-c1ccc(CNC(=O)[C@@H]2C[C@@H](O)CN2C(=O)[C@@H](NC(=O)C2(F)CC2)C(C)(C)C)c(OCCCCCCN2CCC(CNc3cccc(Sc4cnc(N5CCC(C)(CN)CC5)cn4)c3Cl)CC2)c1 [Example 1, (2S,4R)—N-(2-((6-(4-(((3-((5-(4-(aminomethyl)-4-methylpiperidin-1-yl)pyrazin-2-yl)thio)-2-chlorophenyl)amino)methyl)piperidin-1-yl)hexyl)oxy)-4-(4-methylthiazol-5-yl)benzyl)-1-((S)-2-(1-fluorocyclopropane-1-carboxamido)-3,3-dimethylbutanoyl)-4-hydroxypyrrolidine-2-carboxamide]
SHP2% degradation (SHP2 protein [1]; 0.01 μM): −33.4%
SHP2% degradation (SHP2 protein [1]; 0.1 μM): 6.5%

Cc1ncsc1-c1ccc(CNC(=O)[C@@H]2C[C@@H](O)CN2C(=O)[C@@H](NC(=O)C2(F)CC2)C(C)(C)C)c(OCCN2CCN(CCNc3cccc(Sc4cnc(N5CCC(C)(CN)CC5)cn4)c3Cl)CC2)c1 [Example 2, (2S,4R)—N-(2-(2-(4-(2-((3-((5-(4-(aminomethyl)-4-methylpiperidin-1-yl)pyrazin-2-yl)thio)-2-chlorophenyl)amino)ethyl)piperazin-1-yl)ethoxy)-4-(4-methylthiazol-5-yl)benzyl)-1-((S)-2-(1-fluorocyclopropane-1-carboxamido)-3,3-dimethylbutanoyl)-4-hydroxypyrrolidine-2-carboxamide]
SHP2% degradation (SHP2 protein [1]; 0.01 μM): 11.8%
SHP2% degradation (SHP2 protein [1]; 0.1 μM): 80.3%

Cc1ncsc1-c1ccc(CNC(=O)[C@@H]2C[C@@H](O)CN2C(=O)[C@@H](NC(=O)C2(F)CC2)C(C)(C)C)c(OCCN2CCN(CCNc3cccc(Sc4cnc(N5CCC(C)(CN)CC5)cn4)c3Cl)C(=O)C2)c1 [Example 3, (2S,4R)—N-(2-(2-(4-(2-((3-((5-(4-(aminomethyl)-4-methylpiperidin-1-yl)pyrazin-2-yl)thio)-2-chlorophenyl)amino)ethyl)-3-oxopiperazin-1-yl)ethoxy)-4-(4-methylthiazol-5-yl)benzyl)-1-((S)-2-(1-fluorocyclopropane-1-carboxamido)-3,3-dimethylbutanoyl)-4-hydroxypyrrolidine-2-carboxamide]
SHP2% degradation (SHP2 protein [1]; 0.01 μM): 19%
SHP2% degradation (SHP2 protein [1]; 0.1 μM): 90.3%

Cc1ncsc1-c1ccc(CNC(=O)[C@@H]2C[C@@H](O)CN2C(=O)[C@@H](NC(=O)C2(F)CC2)C(C)(C)C)c(OCCN2CCN(C(=O)CNc3cccc(Sc4cnc(N5CCC(C)(CN)CC5)cn4)c3Cl)CC2)c1 [Example 4, (2S,4R)—N-(2-(2-(4-((3-((5-(4-(aminomethyl)-4-methylpiperidin-1-yl)pyrazin-2-yl)thio)-2-chlorophenyl)glycyl)piperazin-1-yl)ethoxy)-4-(4-methylthiazol-5-yl)benzyl)-1-((S)-2-(1-fluorocyclopropane-1-carboxamido)-3,3-dimethylbutanoyl)-4-hydroxypyrrolidine-2-carboxamide]
SHP2% degradation (SHP2 protein [1]; 0.01 μM): 42.9%
SHP2% degradation (SHP2 protein [1]; 0.1 μM): 95.6%

Cc1ncsc1-c1ccc(CNC(=O)[C@@H]2C[C@@H](O)CN2C(=O)[C@@H](NC(=O)C2(F)CC2)C(C)(C)C)c(O[C@H]2CC[C@H](CN3CC(Nc4cccc(Sc5cnc(N6CCC(C)(CN)CC6)cn5)c4Cl)C3)CC2)c1 [Example 5, (2S,4R)—N-(2-(((1R,4S)-4-((3-((3-((5-(4-(aminomethyl)-4-methylpiperidin-1-yl)pyrazin-2-yl)thio)-2-chlorophenyl)amino)azetidin-1-yl)methyl)cyclohexyl)oxy)-4-(4-methylthiazol-5-yl)benzyl)-1-((S)-2-(1-fluorocyclopropane-1-carboxamido)-3,3-dimethylbutanoyl)-4-hydroxypyrrolidine-2-carboxamide]
SHP2% degradation (SHP2 protein [1]; 0.01 μM): 22.3%
SHP2% degradation (SHP2 protein [1]; 0.1 μM): 62.0%

Cc1cn([C@H](C(=O)N2C[C@H](O)C[C@H]2C(=O)NCc2ccc(C#N)cc2OC2CCN(C(=O)C3CCN(c4nccc(Sc5cnc(N6CCC7(CC6)CO[C@@H](C)[C@H]7N)c(CO)n5)c4Cl)CC3)CC2)C(C)C)nn1 [Example 113, (2S,4R)—N-(2-((1-(1-(4-((5-((3S,4S)-4-amino-3-methyl-2-oxa-8-azaspiro[4.5]decan-8-yl)-6-(hydroxymethyl)pyrazin-2-yl)thio)-3-chloropyridin-2-yl)piperidine-4-carbonyl)piperidin-4-yl)oxy)-4-cyanobenzyl)-4-hydroxy-1-((S)-3-methyl-2-(4-methyl-1H-1,2,3-triazol-1-yl)butanoyl)pyrrolidine-2-carboxamide]
SHP2% degradation (SHP2 protein [2]; 0.01 μM): 96.2%
SHP2% degradation (SHP2 protein [2]; 0.1 μM): 99.8%

Cc1cc(C(C(=O)N2C[C@H](O)C[C@H]2C(=O)NCc2ccc(-c3scnc3C)cc2O[C@H]2CC[C@H](C(=O)N3CC(Nc4cccc(Sc5cnc(N6CCC(C)(CN)CC6)cn5)c4Cl)C3)CC2)C(C)C)on1 (stereo partly drawn) [Example 114, (2S,4R)—N-(2-(((1R,4S)-4-(3-((3-((5-(4-(aminomethyl)-4-methylpiperidin-1-yl)pyrazin-2-yl)thio)-2-chlorophenyl)amino)azetidine-1-carbonyl)cyclohexyl)oxy)-4-(4-methylthiazol-5-yl)benzyl)-4-hydroxy-1-(3-methyl-2-(3-methylisoxazol-5-yl)butanoyl)pyrrolidine-2-carboxamide]
SHP2% degradation (SHP2 protein [2]; 0.01 μM): 48.3%
SHP2% degradation (SHP2 protein [2]; 0.1 μM): 88.1%

Cc1cc(C(C(=O)N2C[C@H](O)C[C@H]2C(=O)NCc2ccc(-c3scnc3C)cc2O[C@H]2CC[C@H](C(=O)N3CC(Nc4cccc(Sc5cnc(N6CCC(C)(CN)CC6)cn5)c4Cl)C3)CC2)C(C)C)on1 (stereo partly drawn) [Example 115, (2S,4R)—N-(2-(((1R,4S)-4-(3-((3-((5-(4-(aminomethyl)-4-methylpiperidin-1-yl)pyrazin-2-yl)thio)-2-chlorophenyl)amino)azetidine-1-carbonyl)cyclohexyl)oxy)-4-(4-methylthiazol-5-yl)benzyl)-4-hydroxy-1-(3-methyl-2-(3-methylisoxazol-5-yl)butanoyl)pyrrolidine-2-carboxamide]
SHP2% degradation (SHP2 protein [2]; 0.01 μM): 98.3%
SHP2% degradation (SHP2 protein [2]; 0.1 μM): 99.2%
